Test in all cases: inhibition of tumour cell growth, NCI panel, 48 h
Test [1] has as its system 786-0.
Test [2] concerns A549.
The test system of test [3] is EKVX.
In test [4] the test system is HOP-92.
The subject of test [5] is HT-29.
The subject of test [6] is MDA-N.
Test [7] has as its system MOLT-4.
The subject of test [8] is NCI-H23.
The test system of test [9] is NCI/ADR-RES.
Test [10] deals with OVCAR-3.
Test [11] deals with OVCAR-4.
Test [12] relates to RPMI-8226.
The test system of test [13] is SK-MEL-2.
Test [14] relates to SNB-19.
Test [15] deals with TK-10.
The test system of test [16] is UACC-257.
The test system of test [17] is OVCAR-8.
Test [18] deals with SNB-75.
Test [19] deals with SW-620.
Test [20] concerns BT-549.

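Briefly, cells in 96-well plates were exposed to five compound concentrations for 48 h, and endpoints were estimated by linear interpolation. GI50 marks 50% less growth.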 Activity calls are given as the source filed them. Rule as the data show it: active = GI50 up to about 1.1 µM and inactive = higher. Bounds are passed on as bounds.

Turning to `O=[N+]([O-])C(/C=C(\Cl)n1nnc2ccccc21)=C(/Cl)n1nnc2ccccc21`, the GI50 in test [1], in test [2], in test [3], in [4], in test [5] and in test [6] was > 100 µM (inactive) in each case. The GI50 in test [7], in test [8], in test [9], in [10], in test [11] and in test [12] was > 100 µM (inactive) each time. In addition, the GI50 in test [13], in test [14], in test [15] and in test [16] was > 100 µM (inactive) throughout.
For the molecule `CCOC(=O)C(=CNC(=S)N/N=C1\C(=O)Nc2ccccc21)C(=O)OCC`, the GI50 in [1] is > 100 µM (inactive); in test [2], > 100 µM (inactive); in test [4], 82 µM (inactive); in [5], 84.3 µM (inactive); in test [6] it was > 100 µM (inactive); in test [7] it was 84.7 µM (inactive). For the same molecule, the GI50 was > 100 µM (inactive) in [8]; 48.2 µM (inactive) in [9]; 46.2 µM (inactive) in [10]; > 100 µM (inactive) in [11]; 89.9 µM (inactive) in test [17]; > 100 µM (inactive) in test [12]. The GI50 in [13] was > 100 µM (inactive); in [14], > 100 µM (inactive); in [18], 21.5 µM (inactive); in test [19] it was > 100 µM (inactive); in test [15], 59.2 µM (inactive); in test [16], > 100 µM (inactive).
Consider `COc1cc(/C=C2\CCC(C)C3C2=NN(C(C)=O)C3c2cc(OC)c(OC)c(OC)c2)cc(OC)c1OC` (centres undefined), for which the GI50 in [1] is > 79.6 µM (inactive); in [2], > 100 µM (inactive); in test [20] it was > 100 µM (inactive); in [3], > 100 µM (inactive); in test [4], > 100 µM (inactive); in [5], > 100 µM (inactive). The GI50 in [6], in [7], in [8], in [10], in test [11] and in [17] was > 100 µM (inactive) in each case. The GI50 was 36.7 µM (inactive) in test [12]; > 100 µM (inactive) in test [14]; 15.8 µM (inactive) in test [18]; > 100 µM (inactive) in [19]; > 81.1 µM (inactive) in [15]; > 59.8 µM (inactive) in test [16].
For the molecule `[O-][S+]1Nc2c(Cl)cc(Cl)c3c(Cl)cc(Cl)c(c23)N1`, the GI50 in test [1] was 18.5 µM (inactive); in test [2], 29.6 µM (inactive); in test [3], 59.7 µM (inactive); in test [4] it was 21.3 µM (inactive); in test [5], 41.9 µM (inactive); in test [7], 22.6 µM (inactive). Further, the GI50 in test [8] was 29.1 µM (inactive); in test [10], 30.6 µM (inactive); in test [11], 25.6 µM (inactive); in test [17] it was 32.4 µM (inactive); in [12], 37.8 µM (inactive); in [13], 47 µM (inactive). The GI50 in test [14] is 40.3 µM (inactive); in test [18] it was 26.1 µM (inactive); in test [19], 37.2 µM (inactive); in test [15], 42.6 µM (inactive); in test [16], 54.7 µM (inactive).
For the molecule `Nc1ccc(C(=O)NN2C(=O)C(Cl)C2c2ccc([N+](=O)[O-])cc2)cc1` (centres undefined), the GI50 in test [1] is 3.87 µM (inactive); in test [2] it was 11.9 µM (inactive); in test [3] it was 7.59 µM (inactive); in test [4] it was 17.5 µM (inactive); in [5], 8.87 µM (inactive); in [7] it was 3.2 µM (inactive). Moreover, the GI50 in [8] is 7 µM (inactive); in test [10] it was 3.71 µM (inactive); in [11], 12.7 µM (inactive); in test [17], 14.6 µM (inactive); in test [12], 15.4 µM (inactive); in [13] it was 16.9 µM (inactive). The GI50 is 13.1 µM (inactive) in test [14]; 10.2 µM (inactive) in test [18]; 11.1 µM (inactive) in [19]; 19.2 µM (inactive) in test [15]; 14.7 µM (inactive) in test [16].
As to `CC(=O)NC(CCCN(Cc1ccccc1)C(=O)NCCCl)C(=O)NCc1ccccc1` (centres undefined), the GI50 was > 100 µM (inactive) in [1]; > 100 µM (inactive) in test [2]; > 100 µM (inactive) in [3]; > 79.4 µM (inactive) in test [4]; > 100 µM (inactive) in test [5]; > 100 µM (inactive) in [7]. Also, the GI50 in test [8], in test [10], in [11], in [17], in [12] and in test [13] was > 100 µM (inactive) in each case. The GI50 in test [14] was > 100 µM (inactive); in test [18] it was > 69.5 µM (inactive); in test [19], > 100 µM (inactive); in [15] it was > 100 µM (inactive); in test [16], > 100 µM (inactive).
For the molecule `COC(=O)c1c(O)ccc2c1c1cc3ccccc3cc1n2Cc1cc(OC)cc(OC)c1`, the GI50 is 3.55 µM (inactive) in test [1]; 3.37 µM (inactive) in test [2]; 6.3 µM (inactive) in test [3]; 11.7 µM (inactive) in test [4]; 11 µM (inactive) in test [5]; 0.43 µM (active) in [6]. Besides, the GI50 was 21.7 µM (inactive) in test [7]; 4.53 µM (inactive) in test [8]; 1.4 µM (inactive) in test [9]; 0.339 µM (active) in test [10]; 9.84 µM (inactive) in test [11]; 6.38 µM (inactive) in [17]. The GI50 was 1.96 µM (inactive) in [12]; 1.22 µM (inactive) in test [13]; 5.82 µM (inactive) in [14]; 2.51 µM (inactive) in [18]; 3.61 µM (inactive) in test [19]; > 23.2 µM (inactive) in test [15]. Besides, the GI50 in test [16] was 9.73 µM (inactive).
`CN1c2ccccc2C(=O)NC12CCN(Cc1ccccc1)CC2`: the GI50 in [1] is 62.4 µM (inactive); in test [2], 56.9 µM (inactive); in test [3], 42.2 µM (inactive); in test [4], 18.3 µM (inactive); in [5], 27.6 µM (inactive); in [7], 38.9 µM (inactive). Further, the GI50 in [8] was > 100 µM (inactive); in [9], > 100 µM (inactive); in [11], 80.2 µM (inactive); in test [17], 69.2 µM (inactive); in [12], 47.2 µM (inactive); in test [14] it was 27.5 µM (inactive). Further, the GI50 in [18] is 75 µM (inactive); in test [19], 55.3 µM (inactive); in test [15] it was 41 µM (inactive); in test [16], 59.6 µM (inactive).
In the case of `Oc1cc2cc(-c3ccccc3)[nH]c2c2ccccc12`, the GI50 was > 59 µM (inactive) in [1]; 30.1 µM (inactive) in test [2]; > 48.9 µM (inactive) in test [3]; 23.8 µM (inactive) in [4]; 68.9 µM (inactive) in [5]; 39.9 µM (inactive) in test [7]. Further, the GI50 in [8] is 15 µM (inactive); in [10] it was 16.3 µM (inactive); in test [11], 33.4 µM (inactive); in [17], 32.7 µM (inactive); in test [12] it was 16.6 µM (inactive); in test [13], 20.3 µM (inactive). The GI50 in test [14] was 21.7 µM (inactive); in test [18], 33 µM (inactive); in [19], 34.4 µM (inactive); in [15], > 100 µM (inactive); in test [16], 16 µM (inactive).
Consider `CC(=O)O[C@@H]1C(=O)N(c2ccccc2)[C@@H]1c1cc2ccccc2c2ccccc12`, for which the GI50 in [1] was 42.2 µM (inactive); in test [2], 21.5 µM (inactive); in test [3] it was 40.6 µM (inactive); in test [4] it was 20.8 µM (inactive); in [5], 29 µM (inactive); in test [6], 43 µM (inactive). The GI50 in [7] is 12.3 µM (inactive); in test [8], 20.2 µM (inactive); in test [9], 33.9 µM (inactive); in test [10], 23.2 µM (inactive); in test [11] it was 20.5 µM (inactive); in test [17] it was 24.5 µM (inactive). Further, the GI50 was 21.3 µM (inactive) in test [12]; 14.4 µM (inactive) in [13]; 73.3 µM (inactive) in test [14]; 30.9 µM (inactive) in test [15]; 25.5 µM (inactive) in test [16].
As to `Cc1ccc(S(=O)(=O)N/N=C(\c2nc3ccc(Cl)cc3nc2O)C(O)c2cccc([N+](=O)[O-])c2)cc1` (centres undefined), the GI50 in test [1], in test [2], in test [3], in [4], in test [5] and in test [7] was > 100 µM (inactive) in each case. Also, the GI50 was > 100 µM (inactive) in test [8]; > 100 µM (inactive) in test [10]; > 100 µM (inactive) in test [11]; > 100 µM (inactive) in [17]; 71 µM (inactive) in [12]; > 100 µM (inactive) in test [13]. The GI50 in [14], in test [18], in [19], in test [15] and in test [16] was > 100 µM (inactive) in each case.

Source of the values: ChEMBL document CHEMBL1201862, “PubChem BioAssay data set” (2004).
